Results: patent US8778974B2, “Trisubstituted 1,2,4 triazoles” (Janssen Pharmaceutica NV, priority 2008, dated 2014)

Columns and labels:
[1] = molecular target: T1, hα7-wt nAChR-expressing cells (Homo sapiens, UniProt P36544); assay: Ca2+ flux imaging (FDSS) (Protocol B), PAM activity with choline 100 μM; type: cell-based; settings: according to Ex. D.1b; read-out: % Efficacy
T1 construct: expressed in transfected cells; host or cells: hα7-wt nAChR-expressing cells
Protocol: Ca^2+ Flux Imaging (FDSS) (Protocol B)
• a) Assay buffer • Hanks buffered saline solution (HBSS, Invitrogen, Belgium), supplemented with 10 mM HEPES (Invitrogen, Belgium), CaCl2 to a final concentration of 5 mM, 0.1% Bovine serum albumin (Sigma-Aldrich NV, Belgium). • b) Calcium-sensitive dye—Fluo-4AM • Fluo-4AM (Molecular Probes, USA) was dissolved in DMSO containing 10% Pluronic acid (Molecular Probes, USA) to give a stock solution which was diluted in assay buffer supplemented with 5 mM probenicid (Sigma, Al-drich NV, Belgium) to give a final concentration of 2 μM. • c) 384-well plates • Black 384 well plate black/clear plates, PDL pre-coated (Corning, Incorporated, USA) • d) Calcium flux measurement • A Functional drug screening system (FDSS, Hamamatsu) was used to measure intracellular free-calcium flux signals. Method
Monolayers of hα7-wt nAChR-expressing cells were grown in multi-well plates, in particular black-sided, transparent bottomed 384 well plates coated with poly-D-lysine for 24 hours prior to loading with a fluorescent calcium indicator, in a particular embodiment loading with fluo-4AM for up to 120 minutes.
PAM activity was detected in real time by applying the compounds to be tested to the loaded cells along with a α7 nicotinic receptor agonist during constant monitoring of cellular fluorescence in a FDSS. Compounds giving peak fluorescent responses greater than the response due to agonist alone, were considered to be α7 nAChR PAM's. In a particular embodiment, the α7 nicotinic receptor agonist was choline, a more particular embodiment choline applied at a sub-maximal concentration of 100 μM. In a further setting of the present invention the compounds to be tested were applied prior to the α7 nicotinic receptor agonist, in a particular embodiment up to 10 minutes prior to the agonist.
A control response to choline was calculated on each plate from the difference in peak in fluorescence in wells receiving either choline or assay buffer alone. Compounds of the present invention were tested at a concentration range from 0.01 μM to 30 μM. Compounds were considered to have an interesting activity when they potentiated the choline signal at least with 500% when tested at a concentration of 30 μM (the efficacy of 100 μM choline was defined as 100% in the absence of a PAM). The compounds also have a potentiating effect on the response to choline when measured by whole-cell patch clamp electrophysiology in GH4Cl cells stably over-expressing the human wild-type α7 receptor.

[2] = molecular target: T2, hα7-wt nAChR-expressing GH4Cl cells (Homo sapiens, UniProt P36544); assay: Patch-clamp current recording (whole-cell), potentiation of choline 1 mM response, PAM type; type: cell-based; design: key to Pam type: Type 0 compounds minimally enhance the effect size of the current elicited by 1 mM choline.; Type 1 compounds enhance the effect size of the current elicited by 1 mM choline but minimally alter the kinetics of the receptor.; Type 2 compounds enhance the effect size of the current elicited by 1 mM choline while reducing the rate and/or the extent of desensitization.; Type 3 compounds enhance the effect size of the current elicited by 1 mM choline. When tested at higher concentrations up to 10 μM they completely inhibit desensitization, in particular a 1 mM choline application of 250 milliseconds.; Type 4 compounds allow for an initial desensitization of the receptor followed by a re-opening of the receptor during agonist application; settings: for EC50: according to Ex. D.2, "<5" = no top plateau reached at maximal concentration, read-out: Potency (pEC50) (converted); for Pam type: patch-clamp current recording, 1 mM choline
T2 construct: expressed in transfected cells
T2 sequence (P36544 23-502): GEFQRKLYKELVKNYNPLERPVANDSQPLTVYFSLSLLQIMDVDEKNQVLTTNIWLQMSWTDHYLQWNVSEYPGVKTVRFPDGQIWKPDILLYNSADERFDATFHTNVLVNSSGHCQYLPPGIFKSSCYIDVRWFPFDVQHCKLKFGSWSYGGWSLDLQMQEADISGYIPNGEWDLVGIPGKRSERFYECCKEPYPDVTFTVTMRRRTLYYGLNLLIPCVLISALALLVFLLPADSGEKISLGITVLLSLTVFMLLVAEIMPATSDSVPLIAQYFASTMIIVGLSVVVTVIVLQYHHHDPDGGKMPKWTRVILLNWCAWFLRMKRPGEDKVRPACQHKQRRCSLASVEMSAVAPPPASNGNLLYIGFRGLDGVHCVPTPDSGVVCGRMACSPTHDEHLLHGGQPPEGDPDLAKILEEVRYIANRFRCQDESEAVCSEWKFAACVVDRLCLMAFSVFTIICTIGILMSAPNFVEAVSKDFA
Outline: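 Whole-cell voltage clamp at −70 mV of GH4Cl cells expressing human α7 nAChR, with PAM and 1 mM choline co-applied by rapid-switching (<100 ms) microfluidics. External solution HEPES-buffered, 1 mM Ca, pH 7.3; CsCl-based internal. Compounds classified into PAM types by effect on current amplitude and desensitization kinetics.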

T1 sequence (P36544 23-502): as above

Compound	Emax [1]	EC50 [2]	melting point	Pam type [2]
Cc1cc(-n2nc(Nc3cc(F)c(F)c(F)c3)nc2CC(=O)NC2CC2)cc(C)n1 [E241]	653%	0.138 µM	295.7 °C	–
Cc1cc(-n2nc(Nc3ccc(F)c(Cl)c3)nc2CC(=O)NC2CCC2)cc(C)n1 [E231]	606%	0.0575 µM	273.9 °C	–
Cc1cc(-n2nc(Nc3cc(F)cc(Cl)c3)nc2CC(=O)NC2CC2)cc(C)n1 [E247]	663%	0.214 µM	289.3 °C	–
COc1ccc(Nc2nc(CC(=O)NC3CC3)n(-c3cc(C)nc(C)c3)n2)cc1C(F)(F)F [E229]	680%	0.135 µM	265.7 °C	4
CCNC(=O)Cc1nc(Nc2cc(F)c(F)c(F)c2)nn1-c1cc(C)nc(C)c1 [E215]	658%	0.214 µM	296.1 °C	2
Cc1cc(-n2nc(Nc3ccc(F)c(F)c3)nc2CCC(=O)N(C)C)cc(C)n1 [E234, 3-[(3,4-difluorophenyl)amino]-1-(2,6-dimethyl-4-pyridinyl)-N,N-dimethyl-1H-1,2,4-triazole-5-propanamide]	459%	0.0617 µM	200.2 °C	–
Cc1cc(-n2nc(Nc3cc(F)cc(F)c3)nc2CC(=O)NC2CC2)cc(C)n1 [E238]	382%	0.575 µM	289.2 °C	–
CNC(=O)Cc1nc(Nc2cc(Cl)cc(OC)c2)nn1-c1cc(C)nc(C)c1 [E216]	576%	0.603 µM	246.2 °C	4
C[C@H](O)Cc1nc(Nc2ccc(F)c(F)c2)nn1-c1ccc(F)cc1 [E19]	445%	3.02 µM	178 °C	–
Cc1nccc(-n2nc(Nc3cccc(Cl)c3F)nc2CC(=O)NC2CCC2)c1C [E192]	397%	1.58 µM	187.9 °C	1
COc1cc(Cl)cc(Nc2nc(CC(=O)NC3CC3)n(-c3cc(C)nc(C)c3)n2)c1 [E221]	620%	0.209 µM	264.4 °C	4
Cc1cc(-n2nc(Nc3cccc(Cl)c3F)nc2CC(=O)NC2CC2)c(C)cn1 [E157]	492%	3.8 µM	192.6 °C	2
CNC(=O)CCc1nc(Nc2ccc(F)c(F)c2)nn1-c1ccc(Cl)cc1 [E40]	495%	1.91 µM	177.3 °C	–
Cc1cc(-n2nc(Nc3ccc(F)c(F)c3)nc2CC(=O)NC2CCC2)c(C)cn1 [E162]	623%	2.88 µM	244.1 °C	1
Cc1cc(-n2nc(Nc3ccc(F)c(F)c3)nc2C[C@@H](C)O)ccn1 [E198]	808%	1.86 µM	210.3 °C	2
Cc1cc(-n2nc(Nc3ccc(F)c(F)c3)nc2CC(=O)NCC2CC2)c(C)cn1 [E166]	589%	2.34 µM	211.2 °C	1
Cc1cc(-n2nc(Nc3ccc(F)c(F)c3F)nc2CC(=O)NCC2CC2)cc(C)n1 [E214]	730%	0.132 µM	213.7 °C	2
Cc1cc(-n2nc(Nc3ccc(F)c(C(F)(F)F)c3)nc2CC(=O)NC2CCC2)cc(C)n1 [E225]	660%	0.1 µM	248.8 °C	0
CCNC(=O)Cc1nc(Nc2cc(F)cc(F)c2)nn1-c1cc(C)nc(C)c1 [E237]	522%	0.407 µM	289 °C	–
CNC(=O)Cc1nc(Nc2cc(F)c(F)c(F)c2)nn1-c1cc(C)nc(C)c1 [E240]	628%	0.49 µM	297.4 °C	–
Cc1cc(-n2nc(Nc3cc(F)cc(C(F)(F)F)c3)nc2CC(=O)NC2CC2)cc(C)n1 [E253]	950%	0.0912 µM	286.3 °C	–
